According to ChEMBL document CHEMBL1152050, “Asymmetric synthesis of enantiomerically pure 4-fluoroalkyl-2,3-dideoxy nucleosides” (Bioorg Med Chem Lett, 1994):

Key:
MT4 [1] = assay: Antiviral activity expressed as ability to prevent the HIV-induced cytopathic effect in MT-4 cells at a dose of 100 ug/ml; No significant activity; assay type: functional, cell-based; details: Homo sapiens
MT4 [2] = assay: Cytotoxicity by the MTT assay in MT-4 cells at a dose of 100 ug/ml; No significant activity; assay type: functional, cell-based; details: Homo sapiens

| SMILES | Activity (MT4 [1]) | Activity (MT4 [2]) |
| --- | --- | --- |
| Cc1cn(C2CC[C@](CO)(CF)O2)c(=O)[nH]c1=O (single isomer, unassigned) | No significant activity | No significant activity |
| Cc1cn([C@@H]2CCC(CO)(CF)O2)c(=O)[nH]c1=O (single isomer, unassigned) | No significant activity | No significant activity |
